# System: Ts2Cje mice
# Test: Novel object recognition (NOR) cognitive test after intranasal treatment
# Type: in vivo, mouse
# Settings: Ts2Cje mice 9 months of age; sitagliptin 5 mM intra-nasally, 10 μL/nostril, once a day for 21 days
# Source text: Finally, animals were sacrificed using cervical dislocation. […] The Novel object recognition (NOR) test is a relatively fast and efficient means of testing different stages of learning and memory in mice. The test is based on a minimum of three sessions: a habituation session (Day 1), a training session (Day 2) and a test session (Day 3). Training simply involves visual exploration of two identical objects, while the test session involves replacing one of the previously explored objects with a new object. Since rodents have an innate preference for novelty, a rodent that remembers the familiar object will spend more time exploring the new object. […] In the habituation stage, each animal can freely explore the arena for 10 minutes (50 cm deep×30 cm wide×30 cm high) in the absence of objects. During the training stage, a single animal is placed in the arena containing two identical objects (two balls) for 10 min. In the testing stage, after 24 hours, the animal is brought back to the arena with two objects, one is the familiar object and the other is a new object (ball+lego). […] In the analysis stage, the discrimination index (DI) and preference index (PI) are evaluated. The discrimination index (DI) allows calculation of the animal's ability to discriminate between new (TN) and familiar (TF) objects [DI=(TN−TF)/(TN+TF)]. […]
smiles,measurement,value
"N[C@@H](CC(=O)N1CCn2c(nnc2C(F)(F)F)C1)Cc1cc(F)c(F)cc1F [sitagliptin, (R)-4-oxo-4-[3-(trifluoromethyl)-5,6-dihydro[1,2,4]triazole[4,3-a]pyrazin-7(8H)-yl]-1-(2,4,5-trifluorophenyl)butan-2-amine]","cognitive performance, novel object recognition (NOR)",marked improvement in cognitive performance

# Reference: US12636284B2, “Compositions for use in the prevention and/or treatment of intellectual disability and neurodegenerative diseases in a subject with down syndrome” (UNIVERSITA' DEGLI STUDI DI ROMA “LA SAPIENZA”, priority 2021, dated 2026)
